# Source: patent publication US20240209028A1, “CNP COMPOUNDS” (priority 2022, published 2024)
# Starred links: 1 amine or outer side, 2 acyl side, 3 side chain; linkers in the order of their positions; H or OH if unused. Positions of bridges follow the written chain, without caps; N, C: chain ends. Residues, ends and D or L forms follow the SMILES beside them. *: point of attachment. C18 diacid = O=C(O)CCCCCCCCCCCCCCCCC(=O)*; γGlu = O=C(O)[C@H](CCC(=O)[*:2])N[*:1]; AEEA = NCCOCCOCC(=O)O
# Experiment: Thioflavin T (ThT) assay: lagtime and peptide recovery
# Type: physicochemical
# Details: ThT assay, pH 6.5, 37° C.; assay terminated after 45 hours
# Description: The ThT assay was used to evaluate physical stability of the CNP compounds and their suitability for liquid formulation. Low physical stability of peptides may lead to amyloid fibril formation, which is observed as well-ordered, thread-like macromolecular structures in the sample eventually resulting in gel formation. This has traditionally been tested by visual inspection of the sample. However, that kind of measurement is very subjective and depending on the observer. Therefore, the application of a small molecule indicator probe is much more advantageous. Thioflavin T (ThT) is such a probe and has a distinct fluorescence signature when binding to fibrils [Naiki et al. (1989) Anal. Biochem. 177, 244-249; LeVine (1999) Methods. Enzymol. […], 274-284].
# Procedure: Thioflavin T was added to the supernatant samples from Example 5 (pH 4.0 and 6.5) using an aqueous ThT stock solution to a final concentration of about 1 μM in the samples. Sample aliquots of 150 μL were placed in a 96 well microtiter plate (Packard OptiPlate™-96, white polystyrene). Usually, two to three replicas of each sample were applied to the plate. The plate was sealed and placed in a fluorescence plate reader (Fluoroskan Ascent FL) and incubated at 37° C. with orbital shaking (960 rpm; 1 mm amplitude). Fluorescence measurements were performed every 20 minutes using excitation through a 444 nm filter and measurement of emission through a 485 nm filter. Between each measurement, the plate was shaken and heated as described above and the assay was terminated after 45 hours. Fluorescence measurements for each microtiter plate well were plotted against time and the lag-time (time until an increase in ThT fluorescence was observed) was estimated.
# To assess loss of dissolved peptide following 45h incubation, peptide recovery was measured as the ratio between total peak area after incubation vs. before incubation using the RP-UPLC method described below.
# Measurement of LagTime and Peptide recovery % using RP-UPLC: RP-UPLC was conducted using an Acquity UPLC BEH C18 1.7 μm (2.1×30 mm) Waters column (Eluent A: 0.1% v/v % TFA in water; Eluent B: 0.1% v/v TFA in acetonitrile/water 4:1) with gradient elution (0 min: 95% A; 2 min: 20% A; 2.3 min: 20% A; 2.4 min: 95% A; 9 min: 95% A) in a flow rate of 0.9 mL/min and a column temperature of 30° C. UV-detection at 215 nm was used to assess the total peptide area.
# Samples at pH 4.0 were prepared as described in Example 5 and subjected to the ThT assay as described above.
# Samples at pH 6.5 were prepared as described in Example 5 and subjected to the ThT assay as described above.
row,SMILES,LagTime (h) at pH 6.5 [h]
1,CC[C@H](C)[C@@H]1NC(=O)[C@H](CCCNC(=N)N)NC(=O)[C@H](CC(=O)O)NC(=O)[C@H](CC(C)C)NC(=O)[C@@H]2CCCN2C(=O)[C@H](CC(C)C)NC(=O)CNC(=O)[C@H](Cc2ccccc2)NC(=O)[C@@H](NC(=O)CNC(=O)[C@H](CO)NC(=O)[C@H](CO)NC(=O)[C@@H](NC(=O)CNC(=O)[C@@H](NC(=O)[C@H](CCCCN)NC(=O)[C@H](CCC(N)=O)NC(=O)[C@H](C)NC(=O)CNC(=O)[C@H](Cc2c[nH]cn2)NC(=O)[C@H](Cc2ccc(O)cc2)NC(=O)COCCOCCNC(=O)COCCOCCNC(=O)CC[C@H](NC(=O)CCCCCCCCCCCCCCCCC(=O)O)C(=O)O)[C@@H](C)O)C(C)C)CSSC[C@@H](C(=O)O)NC(=O)CNC(=O)[C@H](CC(C)C)NC(=O)CNC(=O)[C@H](CO)NC(=O)[C@H](CC(C)C)NC(=O)[C@H](CO)NC(=O)CNC1=O [compound 1303] ({C18 diacid-γGlu-AEEA-AEEA}-YHGAQKTGVSSGCFGLPLDRIGSLSGLGC-OH; disulfide 13-29),5
2,CC[C@H](C)[C@@H]1NC(=O)[C@H](CCCNC(=N)N)NC(=O)[C@H](CC(=O)O)NC(=O)[C@H](CC(C)C)NC(=O)[C@@H]2CCCN2C(=O)[C@H](CC(C)C)NC(=O)CNC(=O)[C@H](Cc2ccccc2)NC(=O)[C@@H](NC(=O)CNC(=O)[C@H](CO)NC(=O)[C@H](CO)NC(=O)[C@H](CC(C)C)NC(=O)CNC(=O)[C@@H](NC(=O)[C@H](Cc2c[nH]cn2)NC(=O)[C@H](CCC(N)=O)NC(=O)[C@H](C)NC(=O)CNC(=O)[C@H](Cc2c[nH]cn2)NC(=O)[C@H](Cc2ccc(O)cc2)NC(=O)COCCOCCNC(=O)COCCOCCNC(=O)CC[C@H](NC(=O)CCCCCCCCCCCCCCCCC(=O)O)C(=O)O)[C@@H](C)O)CSSC[C@@H](C(=O)O)NC(=O)CNC(=O)[C@H](CC(C)C)NC(=O)CNC(=O)[C@H](CO)NC(=O)[C@H](CC(C)C)NC(=O)[C@H](CO)NC(=O)CNC1=O [compound 1304] ({C18 diacid-γGlu-AEEA-AEEA}-YHGAQHTGLSSGCFGLPLDRIGSLSGLGC-OH; disulfide 13-29),45
3,CC[C@H](C)[C@@H]1NC(=O)[C@H](CCCNC(=N)N)NC(=O)[C@H](CC(=O)O)NC(=O)[C@H](CC(C)C)NC(=O)[C@@H]2CCCN2C(=O)[C@H](CC(C)C)NC(=O)CNC(=O)[C@H](Cc2ccccc2)NC(=O)[C@@H](NC(=O)CNC(=O)[C@H](CO)NC(=O)[C@H](CO)NC(=O)[C@H](CC(C)C)NC(=O)CNC(=O)[C@H](CCCCN)NC(=O)[C@H](CCCCN)NC(=O)[C@H](CCC(N)=O)NC(=O)[C@H](C)NC(=O)CNC(=O)[C@H](Cc2c[nH]cn2)NC(=O)[C@H](CCC(=O)O)NC(=O)COCCOCCNC(=O)COCCOCCNC(=O)CC[C@H](NC(=O)CCCCCCCCCCCCCCCCC(=O)O)C(=O)O)CSSC[C@@H](C(=O)O)NC(=O)CNC(=O)[C@H](CC(C)C)NC(=O)CNC(=O)[C@H](CO)NC(=O)[C@H](CC(C)C)NC(=O)[C@H](CO)NC(=O)CNC1=O [compound 1310] ({C18 diacid-γGlu-AEEA-AEEA}-EHGAQKKGLSSGCFGLPLDRIGSLSGLGC-OH; disulfide 13-29),45
4,CC[C@H](C)[C@@H]1NC(=O)[C@H](CCCNC(=N)N)NC(=O)[C@H](CC(=O)O)NC(=O)[C@H](CC(C)C)NC(=O)[C@@H]2CCCN2C(=O)[C@H](CC(C)C)NC(=O)CNC(=O)[C@H](Cc2ccccc2)NC(=O)[C@@H](NC(=O)CNC(=O)[C@H](CO)NC(=O)[C@H](CO)NC(=O)[C@@H](NC(=O)CNC(=O)[C@@H](NC(=O)[C@H](CCCCN)NC(=O)[C@H](CCC(N)=O)NC(=O)[C@H](C)NC(=O)CNC(=O)[C@H](Cc2c[nH]cn2)NC(=O)[C@H](Cc2ccc(O)cc2)NC(=O)COCCOCCNC(=O)COCCOCCNC(=O)COCCOCCNC(=O)CC[C@H](NC(=O)CCCCCCCCCCCCCCCCC(=O)O)C(=O)O)[C@@H](C)O)C(C)C)CSSC[C@@H](C(=O)O)NC(=O)CNC(=O)[C@H](CC(C)C)NC(=O)CNC(=O)[C@H](CO)NC(=O)[C@H](CC(C)C)NC(=O)[C@H](CO)NC(=O)CNC1=O [compound 1352] ({C18 diacid-γGlu-AEEA-AEEA-AEEA}-YHGAQKTGVSSGCFGLPLDRIGSLSGLGC-OH; disulfide 13-29),23
5,CC[C@H](C)[C@@H]1NC(=O)[C@H](CCCNC(=N)N)NC(=O)[C@H](CC(=O)O)NC(=O)[C@H](CC(C)C)NC(=O)[C@@H]2CCCN2C(=O)[C@H](CC(C)C)NC(=O)CNC(=O)[C@H](Cc2ccccc2)NC(=O)[C@@H](NC(=O)CNC(=O)[C@H](CCCCN)NC(=O)[C@H](CO)NC(=O)[C@H](CC(C)C)NC(=O)CNC(=O)[C@H](CCCCN)NC(=O)[C@H](CCCCN)NC(=O)[C@H](CCC(N)=O)NC(=O)[C@H](C)NC(=O)CNC(=O)[C@H](CCC(=O)O)NC(=O)[C@H](Cc2ccc(O)cc2)NC(=O)COCCOCCNC(=O)COCCOCCNC(=O)COCCOCCNC(=O)COCCOCCNC(=O)CC[C@H](NC(=O)CCCCCCCCCCCCCCCCC(=O)O)C(=O)O)CSSC[C@@H](C(=O)O)NC(=O)CNC(=O)[C@H](CC(C)C)NC(=O)CNC(=O)[C@H](CO)NC(=O)[C@H](CC(C)C)NC(=O)[C@H](CO)NC(=O)CNC1=O [compound 1375] ({C18 diacid-γGlu-AEEA-AEEA-AEEA-AEEA}-YEGAQKKGLSKGCFGLPLDRIGSLSGLGC-OH; disulfide 13-29; C-terminus assumed),45
6,CC[C@H](C)[C@@H]1NC(=O)[C@H](CCCNC(=N)N)NC(=O)[C@H](CC(=O)O)NC(=O)[C@H](CC(C)C)NC(=O)[C@@H]2CCCN2C(=O)[C@H](CC(C)C)NC(=O)CNC(=O)[C@H](Cc2ccccc2)NC(=O)[C@@H](NC(=O)CNC(=O)[C@H](CO)NC(=O)[C@H](CO)NC(=O)[C@H](CC(C)C)NC(=O)CNC(=O)[C@H](CCCCN)NC(=O)[C@H](CCCCN)NC(=O)[C@H](CCC(N)=O)NC(=O)[C@H](C)NC(=O)CNC(=O)[C@H](CCC(=O)O)NC(=O)[C@H](Cc2ccc(O)cc2)NC(=O)CNC(=O)CNC(=O)CNC(=O)COCCOCCNC(=O)COCCOCCNC(=O)CC[C@H](NC(=O)CCCCCCCCCCCCCCCCC(=O)O)C(=O)O)CSSC[C@@H](C(=O)O)NC(=O)CNC(=O)[C@H](CC(C)C)NC(=O)CNC(=O)[C@H](CO)NC(=O)[C@H](CC(C)C)NC(=O)[C@H](CO)NC(=O)CNC1=O [compound 1378] ({C18 diacid-γGlu-AEEA-AEEA}-GGGYEGAQKKGLSSGCFGLPLDRIGSLSGLGC-OH; disulfide 16-32),2.5

# Same assay, conditions: ThT, 37° C., shaking; assay terminated after 45 hours
row,SMILES,LagTime (h) at pH 4.0 [h]
1,CC[C@H](C)[C@@H]1NC(=O)[C@H](CCCNC(=N)N)NC(=O)[C@H](CC(=O)O)NC(=O)[C@H](CC(C)C)NC(=O)[C@@H]2CCCN2C(=O)[C@H](CC(C)C)NC(=O)CNC(=O)[C@H](Cc2ccccc2)NC(=O)[C@@H](NC(=O)CNC(=O)[C@H](CO)NC(=O)[C@H](CO)NC(=O)[C@@H](NC(=O)CNC(=O)[C@@H](NC(=O)[C@H](Cc2c[nH]cn2)NC(=O)[C@H](CCC(N)=O)NC(=O)[C@H](C)NC(=O)CNC(=O)[C@H](Cc2c[nH]cn2)NC(=O)[C@H](Cc2ccc(O)cc2)NC(=O)[C@H](CCCCN)NC(=O)[C@H](CCCNC(=N)N)NC(=O)[C@H](C)NC(=O)COCCOCCNC(=O)COCCOCCNC(=O)CC[C@H](NC(=O)CCCCCCCCCCCCCCCCC(=O)O)C(=O)O)[C@@H](C)O)C(C)C)CSSC[C@@H](C(=O)O)NC(=O)CNC(=O)[C@H](CC(C)C)NC(=O)CNC(=O)[C@H](CO)NC(=O)[C@H](CC(C)C)NC(=O)[C@H](CO)NC(=O)CNC1=O [compound 1351] ({C18 diacid-γGlu-AEEA-AEEA}-ARKYHGAQHTGVSSGCFGLPLDRIGSLSGLGC-OH; disulfide 16-32),45
2,CC[C@H](C)[C@@H]1NC(=O)[C@H](CCCNC(=N)N)NC(=O)[C@H](CC(=O)O)NC(=O)[C@H](CC(C)C)NC(=O)[C@@H]2CCCN2C(=O)[C@H](CC(C)C)NC(=O)CNC(=O)[C@H](Cc2ccccc2)NC(=O)[C@@H](NC(=O)CNC(=O)[C@H](CCC(N)=O)NC(=O)[C@H](CO)NC(=O)[C@H](CO)NC(=O)CNC(=O)[C@H](Cc2c[nH]cn2)NC(=O)[C@H](Cc2c[nH]cn2)NC(=O)[C@H](CCC(N)=O)NC(=O)[C@H](C)NC(=O)CNC(=O)[C@H](Cc2c[nH]cn2)NC(=O)[C@H](Cc2ccc(O)cc2)NC(=O)[C@H](CCCCN)NC(=O)[C@H](Cc2c[nH]cn2)NC(=O)[C@H](C)NC(=O)[C@H](CCC(N)=O)NC(=O)[C@@H]2CCCN2C(=O)[C@H](Cc2c[nH]cn2)NC(=O)[C@H](CCC(=O)O)NC(=O)[C@H](CCC(N)=O)NC(=O)COCCOCCNC(=O)COCCOCCNC(=O)CC[C@H](NC(=O)CCCCCCCCCCCCCCCCC(=O)O)C(=O)O)CSSC[C@@H](C(=O)O)NC(=O)CNC(=O)[C@H](CC(C)C)NC(=O)CNC(=O)[C@H](CO)NC(=O)[C@H](CC(C)C)NC(=O)[C@H](CO)NC(=O)CNC1=O [compound 1381] ({C18 diacid-γGlu-AEEA-AEEA}-QEHPQAHKYHGAQHHGSSQGCFGLPLDRIGSLSGLGC-OH; disulfide 21-37),45
